Source: EP0394314B2, “MULTIPLE STEP ENTRAPMENT/LOADING PROCEDURE FOR PREPARING […]-[…]” (VESTAR, INC., priority 1987, dated 1989)
Structures can show the parent of a compound that is named as a salt.

How the values were obtained:
[1] = Maximum tolerated dose of a single intravenous dose; details: mouse, in vivo, CD2F1 mice, vesicles normalized to the hydrochloride, read-out: maximum tolerated dose (MTD, non-lethal)
Procedure: This compares to an MTD of about 40 mg/kg (normalized to the hydrochloride) for doxorubicin vesicles prepared as described in Example III. In contrast, the MTD for doxorubicin vesicles, when prepared as described in Example III with the exception that citric acid was substituted for lactobionic acid, was only about 10 mg/kg, less than the MTD for the free drug.

[2] = test system: White blood cell (w.b.c.) counts; experiment: White blood cell counts after doxorubicin treatment; type: in vivo, CD2F1 mice; details: doxorubicin dose 40 mg/kg (for the equivalent hydrochloride); four days post therapy
Procedure: White blood cell (w.b.c.) counts were performed on CD2F1 mice receiving doxorubicin doses of 40 mg/kg (for the equivalent hydrochloride). Mice receiving free drug experienced severe depression in w.b.c. counts: at four days post therapy, counts were only 8.5% of pretherapy values. In contrast, mice treated with doxorubicin vesicles prepared in accordance with this invention (Example III) at the same doxorubicin dosage experienced only moderate suppression in w.b.c. counts: at four days post therapy, counts were 75% of pretherapy values.

[3] = Toxicity of doxorubicin vesicles versus free drug, intravenous tests in mice; type: in vivo; details: 20 mg/kg or equivalent dose
Text: In nearly all instances of vesicle-entrapped doxorubicin reported in the literature, the loaded vesicles are less toxic than the free drug.
Doxorubicin vesicles can also be prepared with citric acid.

With COc1cccc2c1C(=O)c1c(O)c3c(c(O)c1C2=O)C[C@@](O)(C(=O)CO)C[C@@H]3O[C@H]1C[C@H](N)[C@H](O)[C@H](C)O1 [doxorubicin hydrochloride] the MTD [1] was ~25 mg/kg, the “w.b.c. counts, % of pretherapy values” [2] was 8.5% and the tolerance of dose [3] was “tolerated”.
